Assay results as given in patent US20200164084A1, “ANTIBODY CONJUGATES COMPRISING TOLL-LIKE RECEPTOR AGONIST AND COMBINATION THERAPIES” (NOVARTIS AG, priority 2017, published 2020).

Assays:
[1] = In vitro stability of conjugates in mouse serum (deconjugation and succinimide ring hydrolysis by LC-MS); assay type: in vitro ADME; details: anti-HER2 mAb2 conjugates, 37° C.
Description: The stability of the bond formed between maleimide containing payloads and Cys residues of the antibody is enhanced by the hydrolysis of the succinimide ring formed in this reaction. The effects of succinimide ring hydrolysis on the stability of antibody conjugates prepared with agonist compounds of the invention were studied after in vitro incubation in mouse serum. Mass changes resulting from payload deconjugation and the hydrolysis of the succinimide ring of maleimide payloads conjugated to antibodies were monitored by LC-MS. The hydrolysis of the succinimide ring has been reported to be stimulated by certain conditions such as high pH, high temperature, or high salts (J. Am. Chem. Soc. 1955, 77: 3922; Biochemistry 1976, 15: 2836; Biochem. J. 1979, 179: 191-197; J Pharm Sci. 1984, 73:1767-1771; Bioorg. Med. Chem. Lett. 17: 6286-6289, 2007). To probe the in vitro stability of conjugates, anti-HER2 antibody mAb2 conjugates were incubated at 37° C. in 50-70% mouse serum. […] The light chain, heavy chain Fab, and heavy chain Fc fragments were then analyzed by ESI-MS. The relative populations of deconjugated antibody, conjugates with attached payload with hydrolyzed succinimide ring, and conjugates with attached payload with intact succinimide ring, were calculated from the relative MS intensities of the corresponding conjugate species. […]

human TLR7 = molecular target: T1, human TLR7 (Homo sapiens, UniProt Q9NYK1); assay: TLR7 reporter gene assay (HEK293, NF-kB-driven luciferase); assay type: cell-based; details: HEK293 cells stably transfected with human TLR7 and NF-kB-driven luciferase reporter
T1 construct: expressed in transfected cells; host or cells: HEK293
T1 sequence (Q9NYK1 27-1049): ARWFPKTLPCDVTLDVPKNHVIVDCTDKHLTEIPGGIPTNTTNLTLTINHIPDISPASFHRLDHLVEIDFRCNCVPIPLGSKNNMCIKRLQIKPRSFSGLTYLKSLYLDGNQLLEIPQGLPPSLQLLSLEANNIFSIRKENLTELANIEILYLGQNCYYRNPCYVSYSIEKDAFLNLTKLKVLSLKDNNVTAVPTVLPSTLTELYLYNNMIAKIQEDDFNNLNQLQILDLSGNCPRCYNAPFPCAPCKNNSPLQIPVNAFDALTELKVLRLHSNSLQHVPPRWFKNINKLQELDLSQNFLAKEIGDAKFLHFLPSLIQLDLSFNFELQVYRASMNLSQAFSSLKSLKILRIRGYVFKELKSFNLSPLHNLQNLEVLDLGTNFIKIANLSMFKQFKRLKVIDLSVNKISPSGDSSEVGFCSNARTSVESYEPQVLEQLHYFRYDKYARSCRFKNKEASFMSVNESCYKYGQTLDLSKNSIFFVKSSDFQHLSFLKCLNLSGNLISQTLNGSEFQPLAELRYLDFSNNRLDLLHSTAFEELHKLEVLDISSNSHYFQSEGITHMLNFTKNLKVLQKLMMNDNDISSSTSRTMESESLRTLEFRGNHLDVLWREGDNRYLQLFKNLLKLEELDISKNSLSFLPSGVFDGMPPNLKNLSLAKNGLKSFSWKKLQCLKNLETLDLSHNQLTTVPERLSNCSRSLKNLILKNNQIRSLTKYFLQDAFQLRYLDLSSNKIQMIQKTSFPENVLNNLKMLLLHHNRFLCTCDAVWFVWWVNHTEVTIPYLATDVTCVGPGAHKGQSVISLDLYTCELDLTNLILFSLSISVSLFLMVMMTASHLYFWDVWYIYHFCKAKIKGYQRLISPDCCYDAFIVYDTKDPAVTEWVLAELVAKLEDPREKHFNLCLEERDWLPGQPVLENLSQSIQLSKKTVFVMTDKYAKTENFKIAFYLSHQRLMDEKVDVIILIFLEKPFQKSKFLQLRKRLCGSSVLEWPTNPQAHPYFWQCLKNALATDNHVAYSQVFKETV
Description: Compounds of Formula (I) were assayed to measure their activity as toll-like receptor 7 agonists.
As a control assay, normal HEK293 transfected with pNifty-Luc were used. […] Bright-Glo™ Luciferase assay buffer and substrate were supplied by Promega # E263B and # E264B (assay substrate and buffer respectively). 384 well clear-bottom plates were supplied by Greiner bio-one (#789163-G) and were custom bar-coded plates.
Cells were plated at 25,000 cells/well in 384-well plates in a final volume of 50 μl of media. Cells were allowed to adhere to the plates after overnight (18 hours) culture at 37° C. and 5% CO2. Serially diluted experimental and positive control compounds were then dispensed to each well and incubated for 7 hours at 37° C. and 5% CO2. Cells stimulated with DMSO alone also serve as negative controls. After the incubation, 30 μl of the pre-mix assay buffer and substrate buffer were added to each well according to manufacturer's instructions. The luminescence signal was read on a CLIPR machine with an integration time of 20 seconds per plate.

conjugate stability (deconjugation through reverse maleimide reaction, succinimide ring hydrolysis) [1]	SMILES	EC50 (human TLR7) [nM]
improved conjugate stability	CCCCCNc1nc(N)nc2ccn(Cc3ccc(CN4CCN(CCN5C(=O)C=CC5=O)CC4)cc3OC)c12 [Compound C-5, 1-(2-(4-(4-((2-amino-4-(pentylamino)-5H-pyrrolo[3,2-d]pyrimidin-5-yl)methyl)-3-methoxybenzyl)piperazin-1-yl)ethyl)-1H-pyrrole-2,5-dione]	–
improved conjugate stability	CCCCCNc1nc(N)nc2ccn(Cc3ccc(CN4CCN(C(=O)CCOCCOCCNC(=O)CN5C(=O)C=CC5=O)CC4)cc3OC)c12 [Compound C-21, N-(2-(2-(3-(4-(4-((2-amino-4-(pentylamino)-5H-pyrrolo[3,2-d]pyrimidin-5-yl)methyl)-3-methoxybenzyl)piperazin-1-yl)-3-oxopropoxy)ethoxy)ethyl)-2-(2,5-dioxo-2,5-dihydro-1H-pyrrol-1-yl)acetamide]	–
–	CCCC[C@@H](CO)Nc1nc(N)nc2ccn(Cc3cc(CN4CCN(C(=O)CCCC(=O)NCCCC[C@H](N)C(=O)O)CC4)ccc3OC)c12 [Compound C-48, (S)-2-amino-6-(5-(4-(3-((2-amino-4-(((S)-1-hydroxyhexan-2-yl)amino)-5H-pyrrolo[3,2-d]pyrimidin-5-yl)methyl)-4-methoxybenzyl)piperazin-1-yl)-5-oxopentanamido)hexanoic acid]	1900
–	CCCCCNc1nc(N)nc2ccn(Cc3ccc(CN4CCN(CCO)CC4)cc3OC)c12 [Compound C-68, 2-(4-(4-((2-amino-4-(pentylamino)-5H-pyrrolo[3,2-d]pyrimidin-5-yl)methyl)-3-methoxybenzyl)piperazin-1-yl)ethan-1-ol]	< 1
